Publication PMC7824571, “Probing the Effects of the FGFR-Inhibitor Derazantinib on Vascular Development in Zebrafish Embryos” (Pharmaceuticals, 2020)
Entries after “also recorded” stand apart in the source; their conditions may differ.

Columns and labels:
[1] = Binding to mouse plasma protein
in vitro = conditions: zebrafish, zebrafish embryo homogenate (1:20 in MilliQ water)
[2] = tested on: developing vasculature in the zebrafish embryo; experiment: Vascular development in zebrafish embryos (confocal / time-lapse imaging of transgenic lines); conditions: 0.1–0.3 μM in swimming water
zebrafish embryos = experiment: Zebrafish embryo lethality; conditions: above a concentration of 1 μM
Experimental: Similarly, DMSO solutions (100 μM) of infigratinib (BGJ398) or vatalanib (PTK/ZK) were diluted in fish water to achieve concentrations of 0.1–0.3 μM. The compounds were added to embryo fish water E3 (5 mM NaCl, 0.17 mM KCl, 0.33 mM CaCl2, 0.33 mM MgSO4, pH 7.0) at 8–10 hpf onwards, before the onset of endothelial cell specification, as previously described.

[3] = %PPB-Mouse (plasma protein binding)

Row | Structure (SMILES) | fraction unbound ([1]; %Fu-PPB, free unbound) | fraction unbound [1, 3] | fraction unbound at 20 h, 1 μM (in vitro) | Anastomosis [2] | Blood flow [2] | Cell cycle [2] | Cell junctions [2] | ISV sprouting angiogenesis [2] | ISV-Aorta Connections [2] | Lumenization [2] | Blood flow ([2]; listed as Infigratinib) | Cell cycle ([2]; listed as Infigratinib) | ISV sprouting angiogenesis ([2]; listed as Infigratinib) | embryo lethality (zebrafish embryos) | Blood flow ([2]; listed as Vatalanib) | ISV sprouting angiogenesis ([2]; listed as Vatalanib)
1 | CCN1CCN(c2ccc(Nc3cc(N(C)C(=O)Nc4c(Cl)c(OC)cc(OC)c4Cl)ncn3)cc2)CC1 [infigratinib] | 0.013 | 0.013 | 0.0497 ± 0.0082 | Moderate/strong defects | mild impediment of blood flow | inhibited cell cycle progression | Mild defects | did not have any effect | Moderate defects | Mild defects | Mild defects | Moderate defects | No defects |  |  | 
2 | Clc1ccc(Nc2nnc(Cc3ccncc3)c3ccccc23)cc1 [vatalanib] | 0.041 ± 0.0018 | 0.0413 | 0.0995 ± 0.0131 |  |  |  |  | dramatically reduced | No defects | Moderate defects |  |  |  | 80–90% | dramatic defects in blood vessel function; also recorded: Moderate defects | Strong defects
